Here are results for 16 molecules from US20040106545A1, “Compounds and methods for modulating cell adhesion” (priority 1996, published 2004).

Like-named read-outs stand apart in the source and are kept apart here. Positions of bridges follow the written chain, without caps; N, C: chain ends. Residues, ends and D or L forms follow the SMILES beside them. *: point of attachment. For = O=C*

The target in one series is T1, chick N-cadherin (Gallus gallus, UniProt P10288).
T1 construct: expressed in transfected cells; host or cells: 3T3 fibroblasts (monolayer); rat post-natal day 2-3 cerebellar neurons plated on top
T1 sequence (P10288 165-912): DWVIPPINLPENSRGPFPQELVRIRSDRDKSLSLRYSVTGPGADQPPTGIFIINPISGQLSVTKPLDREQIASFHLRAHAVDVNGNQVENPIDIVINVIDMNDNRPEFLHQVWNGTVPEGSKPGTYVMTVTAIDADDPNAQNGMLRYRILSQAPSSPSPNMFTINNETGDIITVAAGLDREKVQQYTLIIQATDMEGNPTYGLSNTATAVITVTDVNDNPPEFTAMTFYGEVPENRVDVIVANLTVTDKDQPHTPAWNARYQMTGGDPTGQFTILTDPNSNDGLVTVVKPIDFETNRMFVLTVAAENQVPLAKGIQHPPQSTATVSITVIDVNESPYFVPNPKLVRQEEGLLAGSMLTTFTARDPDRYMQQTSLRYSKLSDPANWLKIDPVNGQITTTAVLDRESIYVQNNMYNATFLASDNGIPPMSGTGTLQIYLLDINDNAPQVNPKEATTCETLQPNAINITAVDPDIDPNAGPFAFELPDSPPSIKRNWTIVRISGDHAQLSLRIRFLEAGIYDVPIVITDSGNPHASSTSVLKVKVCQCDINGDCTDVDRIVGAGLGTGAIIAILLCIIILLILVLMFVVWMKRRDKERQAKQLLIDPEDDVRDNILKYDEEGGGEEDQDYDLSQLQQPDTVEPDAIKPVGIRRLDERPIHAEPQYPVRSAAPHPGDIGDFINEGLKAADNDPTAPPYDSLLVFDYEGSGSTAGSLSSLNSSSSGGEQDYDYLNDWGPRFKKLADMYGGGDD
In words: Neurite outgrowth of rat cerebellar neurons on N-cadherin expressing 3T3 monolayers (Example 15). The format is cell-based. Particulars: for inhibition of N-cadherin dependent neurite outgrowth (in words) / inhibition at 250 µg/mL: 250 μg/mL; for activity on N-cadherin dependent neurite outgrowth (in words): 125 micrograms/mL or below; for inhibitory activity on N-cadherin dependent neurite outgrowth, structure/activity statements: Tables 8 and 9; for inhibition at 125 µg/mL: 125 μg/mL; for inhibition at 125 µg/mL / inhibition at 250 µg/mL: 16-18 hours, read-out: % Inhibition of N-Cadherin Dependent Neurite Outgrowth; for reduction in inhibitory activity on flanking HAV with E-cadherin amino acids: 250 μg/mL (Table 8). How it is done: Cell culture and neurite outgrowth assays. Co-cultures of cerebellar neurons on monolayers of control 3T3 cells and monolayers of transfected 3T3 cells that express physiological levels of chick N-cadherin or human L1 were established as previously described (Williams et al., Neuron 13:583-594, 1994). In brief, 80,000 3T3 cells (control and transfected) were plated into individual chambers of an eight-chamber tissue culture slide coated with polylysine and fibronectin and cultured in DMEM/10% FCS. After 24 hours, when confluent monolayers had formed, the medium was removed and 3000 cerebellar neurons isolated from post-natal day 2-3 rats were plated into each well in SATO media (Doherty et al., Nature 343:464-466, 1990) supplemented with 2% FCS. All of the test peptides were added immediately before the neurons as a 2× stock prepared in SATO/2% FCS. The co-cultures were maintained for 16-18 hours, at which time they were fixed and immunostained for GAP-43 which is present only in the neurons and delineates the neuritic processes. The mean length of the longest neurite per cell was measured for 150-200 neurons sampled in replicate cultures as previously described (Williams et al., Neuron 13:583-594, 1994). […] Dose-response curves were evaluated and the EC50 values determined.

The next series concerns the target T2, N-cadherin (Gallus gallus, UniProt P10288).
T2 construct: expressed in transfected cells; host or cells: 3T3 fibroblasts (monolayer)
T2 sequence (P10288 165-912): T1 sequence (P10288 165-912)
Kind of series: Neurite outgrowth inhibition, rat neurons (Example 21). The format is cell-based. The note with it: 500 μg/mL.

Series [1] deals with Madin Darby canine kidney (MDCK) cells. The format is cell-based. Particulars: for EC50, decrease of electrical resistance across MDCK cell monolayer: 18 hours. As to the method: Yet another assay evaluates the effect of a modulating agent on the electrical resistance across a monolayer of cells. For example, Madin Darby canine kidney (MDCK) cells can be exposed to the modulating agent dissolved in medium (e.g., at a final concentration of 0.5 mg/ml for a period of 24 hours). The effect on electrical resistance can be measured using standard techniques. This assay evaluates the effect of a modulating agent on tight junction formation in epithelial cells. In general, the presence of 500 μg/mL modulating agent should result in a statistically significant decrease in electrical resistance after 24 hours.
Madin Darby canine kidney (MDCK) cells were plated in Millicells (Millipore, Bedford, Mass.), at a density of 300,000 cells per Millicell, and cultured in Dulbecco's Modified Eagle Medium (DMEM; Sigma, St. Louis, Mo.) containing 5% fetal calf serum (Sigma, St. Louis, Mo.) until monolayers formed. Monolayers were exposed to the modulating agent dissolved in medium. The electrical resistance was measured using the EVOM device (World Precision Instruments, Sarasota, Fla.). At the time of measurement, fresh medium, with or without the modulating agent, may be added to the Millicells.

The next series has as its system HMVEC. Format: cell-based, human. The note with it: 3 h. How it is done: (§1) N—Ac-CHAVC-NH2 (SEQ ID NO:10) and the control peptide N—Ac-CHGVC-NH2 (SEQ ID NO:11) were evaluated for possible cytotoxic effects on human microvascular endothelial (HMVEC; Clonetics), human umbilical vein endothelial (HUVEC; ATCC #CRL-1730), IAFp2 (human fibroblast cell line; Institute Armand-Frapier, Montreal, Quebec), WI-38 (human fibroblast cell line; ATCC #CCL-75), MDA-MB231 (human breast cancer cell line; ATCC #HTB-26), and PC-3 (human prostate cancer cell line; ATCC #CRL-1435) cells utilizing the MTT assay (Plumb et al., Cancer Res. 49:4435-4440, 1989). Neither of the peptides was cytotoxic at concentrations up to and including 100 μM. Similarly, neither of the peptides was capable of inhibiting the proliferation of the above cell lines at concentrations up to 100 μM, as judged by ^3H-thymidine incorporation assays.

Another series relates to HUVEC. The format is cell-based, human. The note with it: 3 h. As to the method: as §1
The subject of another series is IAFp2. Format: cell-based, human. The note with it: 3 h. How it is done: as §1
The test system of series [2] is MDA-MB231. Format: cell-based, human. Particulars: 3 h. As to the method: as §1
The subject of series [3] is PC-3. Format: cell-based, human. The note with it: 3 h. How it is done: as §1
The test system of the next series is WI-38. The format is cell-based, human. The note with it: 3 h. How it is done:
as §1

For series [4], the system named is MDA-MB231. In words: Cytotoxicity, MTT assay, MDA-MB231. The format is cell-based, human. As to the method:
as §1

Series [5] has as its system PC-3. In words: Cytotoxicity, MTT assay, PC-3. Format: cell-based, human. As to the method: as §1

Regarding “N—Ac—CLRAHAVDC—NH2: cyclic peptide, SEQ ID NO:32 (Ac-CLRAHAVDC-NH2; disulfide 1-9 (inferred))”, in the series with chick N-cadherin, the “inhibition of N-cadherin dependent neurite outgrowth (in words)” value is “potent inhibitors of neurite outgrowth”; the “activity on N-cadherin dependent neurite outgrowth (in words)” value is given as “lost activity”; the “inhibitory activity on N-cadherin dependent neurite outgrowth, structure/activity statements” value was “partial recovery of activity”.

In the case of “N—Ac—CRAHAVDC—NH2: cyclic peptide, SEQ ID NO:28 (Ac-CRAHAVDC-NH2; disulfide 1-8 (inferred))”, in the series with chick N-cadherin, the “inhibitory activity on N-cadherin dependent neurite outgrowth, structure/activity statements” value is “completely eliminated inhibitory activity”. Besides, the “inhibition of neurite outgrowth” value with N-cadherin is “(inhibition observed”.

Consider “N—Ac—CLFSHAVC—NH2 (Ac-CLFSHAVC-NH2; disulfide 1-8 (inferred))”, for which, in [1], the “effect on electrical resistance across MDCK cells (in words)” value is “loss of activity in this assay” and the “EC50, decrease of electrical resistance across MDCK cell monolayer” value (shortened to “EC50, decrease”) was “INACTIVE”.

In the case of `CC(=O)N[C@H]1CSSC[C@@H](C(N)=O)NC(=O)[C@@H]2CCCN2C(=O)[C@H](C(C)C)NC(=O)[C@H](C)NC(=O)[C@H](Cc2c[nH]cn2)NC1=O` [N—Ac—CHAVPC—NH2] (Ac-CHAVPC-NH2; disulfide 1-6), at chick N-cadherin, the inhibition at 125 µg/mL worked out at 58 ± 4.3% and the “inhibitory activity on N-cadherin dependent neurite outgrowth, structure/activity statements” value is “potent inhibitors”.

Turning to `CC(=O)N[C@H]1CSSC[C@@H](C(N)=O)NC(=O)[C@H](CC(=O)O)NC(=O)[C@H](C(C)C)NC(=O)CNC(=O)[C@H](Cc2c[nH]cn2)NC(=O)[C@H](C)NC1=O` [N—Ac—CAHGVDC—NH2] (Ac-CAHGVDC-NH2; disulfide 1-7), the IC50 in the series on HMVEC, in the series on HUVEC, in the series on IAFp2, in the series on MDA-MB231 [2], in the series with PC-3 [3] and in the series on WI-38 was over 100 µM each time. For the same molecule, the IC50 with MDA-MB231 [4] and in the series on PC-3 [5] was over 100 µM in each case.

Take “N—Ac—CHAVSSC—NH2: cyclic peptide, SEQ ID NO:44 (Ac-CHAVSSC-NH2; disulfide 1-7 (inferred))”: in the series with chick N-cadherin, the “reduction in inhibitory activity on flanking HAV with E-cadherin amino acids” value is reported as “substantial”. The “EC50, decrease” value in [1] is listed as “INACTIVE”.

Regarding “N—Ac—CAHAVC—NH2: cyclic peptide, SEQ ID NO:22 (Ac-CAHAVC-NH2; disulfide 1-6 (inferred))”, in the series with chick N-cadherin, the “inhibition of N-cadherin dependent neurite outgrowth (in words)” value is reported as “potent inhibitors of neurite outgrowth”; the “activity on N-cadherin dependent neurite outgrowth (in words)” value is recorded as “lost activity”; the “inhibitory activity on N-cadherin dependent neurite outgrowth, structure/activity statements” value was “little affect”.

Take “N—Ac—CHAVDINGC—NH2: cyclic peptide, SEQ ID NO:76 (Ac-CHAVDINGC-NH2; disulfide 1-9 (inferred))”: the “inhibitory activity on N-cadherin dependent neurite outgrowth, structure/activity statements” value with chick N-cadherin is on record as “completely abrogates activity”.

Regarding `CC(C)[C@@H]1NC(=O)[C@H](C)NC(=O)[C@H](Cc2c[nH]cn2)NC(=O)[C@@H](NC=O)CSSC[C@@H](C(=O)N[C@@H](CO)C(N)=O)NC1=O` [H—C(O)—NH—CHAVCS—NH2] (For-CHAVCS-NH2; disulfide 1-5 (inferred)), the inhibition at 250 µg/mL at chick N-cadherin was 75.8 ± 5.6%.

On to “N—Ac—CLRAHAVC—NH2: cyclic peptide, SEQ ID NO:30 (Ac-CLRAHAVC-NH2; disulfide 1-8 (inferred))”, for which the “inhibitory activity on N-cadherin dependent neurite outgrowth, structure/activity statements” value with chick N-cadherin is “detrimental affect”.

In the case of `CC(=O)N[C@H]1CSSC[C@@H](C(N)=O)NC(=O)[C@H](Cc2ccc(O)cc2)NC(=O)[C@H](C(C)C)NC(=O)[C@H](C)NC(=O)[C@H](Cc2c[nH]cn2)NC1=O` [N—Ac—CHAVYC—NH2] (Ac-CHAVYC-NH2; disulfide 1-6), on chick N-cadherin, the inhibition at 125 µg/mL worked out at 64.9 ± 1.9%; the inhibition at 250 µg/mL was found to be 64.9%; the “inhibitory activity on N-cadherin dependent neurite outgrowth, structure/activity statements” value is given as “potent inhibitors”.

For “N—Ac—CHAVCE—NH2: cyclic peptide, SEQ ID NO:92 (Ac-CHAVCE-NH2; disulfide 1-5 (inferred))”, the “EC50, decrease” value in series [1] was “INACTIVE”.

Regarding “N—Ac—CSHAVSC—NH2: cyclic peptide, SEQ ID NO:40 (Ac-CSHAVSC-NH2; disulfide 1-7 (inferred))”, in the series with chick N-cadherin, the “reduction in inhibitory activity on flanking HAV with E-cadherin amino acids” value was “complete”. In addition, in series [1], the “EC50, decrease” value is listed as “INACTIVE”.

`CC(C)[C@@H]1NC(=O)[C@H](C)NC(=O)[C@H](Cc2c[nH]cn2)NC(=O)[C@@H](NS(C)(=O)=O)CSSC[C@@H](C(N)=O)NC1=O` [CH3—SO2—NH—CHAVC—NH2]: the inhibition at 250 µg/mL at chick N-cadherin was 74.7 ± 10.5%. Also, in [1], the “effect on electrical resistance across MDCK cells (in words)” value was “complete loss of activity” and the “EC50, decrease” value was “INACTIVE”.

Regarding `CC(=O)N[C@H]1CSSC[C@@H](C(N)=O)NC(=O)[C@H](Cc2c[nH]cn2)NC(=O)CNC(=O)[C@H](C(C)C)NC1=O` [N—Ac—CVGHC—NH2] (Ac-CVGHC-NH2; disulfide 1-5), the IC50 is over 100 µM with HMVEC; 30 µM in the series with HUVEC; over 100 µM in the series with IAFp2; over 100 µM with MDA-MB231 [2]; over 100 µM in the series with PC-3 [3]; over 100 µM with WI-38. Moreover, the IC50 in the series with MDA-MB231 [4] and in the series on PC-3 [5] was over 100 µM throughout.

For “N—Ac-LRAHAVDING-NH2: linear 10-mer, SEQ ID NO:79 [reference compound]”, in the series with chick N-cadherin, the “% inhibition of N-cadherin dependent neurite outgrowth” value is reported as 68.8+/−4.1%.
